This note sets out measurements from PubChem BioAssay (NCI).

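A five-concentration, 48-hour dose response in 96-well plates underlies each endpoint, interpolated linearly between surrounding concentrations. GI50: concentration for 50% inhibition of growth. TGI: concentration producing complete growth inhibition.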 Some results are limits rather than exact numbers.

Holding throughout (experiment): NCI-60 cell line screen, 48 h
For assay [1], the system named is A549 NSCLC.
The subject of assay [2] is BT-549 breast.
Assay [3] concerns CCRF-CEM leukemia.
For assay [4], the system named is HOP-92 NSCLC.
For assay [5], the system named is IGROV1 ovarian.
Assay [6] relates to MALME-3M melanoma.
For assay [7], the system named is MDA-MB-231 breast.
Assay [8] deals with PC-3 prostate.
For assay [9], the system named is SF-268 CNS.
The test system of assay [10] is U251 CNS.

Consider `COC1CC(CC2CCC(C)C(C(C)C(=O)O)O2)OC2(OC(C)(C3CCC(C)(C4OC(C5OC(O)(CO)C(C)CC5C)CC4C)O3)CC2C)C1C` (stereo not given), for which the TGI turned out to be 21.8 µM in assay [1]; 27.7 µM in assay [2]; 17.7 µM in assay [3]; 16.4 µM in [4]; 66.9 µM in assay [5]; 0.798 µM in assay [6]. For the same compound, the TGI in assay [7] came out at 46 µM; in [8], 49 µM; in assay [9] it was 36.5 µM; in [10] it was 11.9 µM.
For `O=C1CC(c2ccc(Cl)cc2)C2(C(=O)NC(=O)NC2=O)C(c2ccc(Cl)cc2)C1` (stereo not given), the TGI in [2] is > 75 µM; in [3] it was > 75 µM; in assay [4], 54.9 µM; in [5] it was 51.3 µM; in assay [6] it was 39.8 µM; in assay [7], 34.8 µM. The TGI in [8], in assay [9] and in assay [10] was > 75 µM each time.
As for `COc1cc2c(cc1OCCCCCCCCN1C(=O)c3cccc4cccc(c34)C1=O)N=C[C@@H]1CCCN1C2=O`, the TGI in assay [1] is > 100 µM; in [2], 35.1 µM; in assay [3] it was 7.28 µM; in assay [5] it was 64.7 µM; in [6], 49.2 µM; in assay [7], 34 µM. Moreover, the TGI in [8] was 27.6 µM; in [9], 58.5 µM; in assay [10], 25.3 µM.
On to `CC(C)C1OC(=O)/C=C/C=C/C=C/C=C/C=C/CC(O)C(C)C(O)CC(O)CC(O)CC(O)CC(O)CC(O)CC(O)/C=C/C1C` (stereo not given), for which the TGI in assay [1], in assay [3], in assay [4], in assay [5], in assay [6] and in assay [8] was > 100 µM in each case. Further, the TGI in assay [9] and in [10] was > 100 µM throughout. Also, the GI50 in [3] is 5.11 µM.
With `NC(=S)N1N=C(c2ccccc2O)CC1c1ccccc1` (stereo not given), the TGI in [1] is 84.6 µM; in [2] it was 75 µM; in assay [3], > 100 µM; in assay [4], 54.6 µM; in assay [5], 48.6 µM; in [6], 42.3 µM. For the same compound, the TGI came out at 22.8 µM in assay [8], 80.6 µM in assay [9] and 43.8 µM in assay [10].
For `CCOC(=O)C1=COC(C)(c2ccccc2)CC1=O` (stereo not given), the TGI in assay [1], in assay [2], in assay [7], in assay [8], in [9] and in assay [10] was > 100 µM each time.
For the compound `O=C(Cn1c2ccc(Br)cc2c2nc3ccccc3nc21)N/N=C/c1ccccc1`, the TGI in assay [1], in [2], in [5], in [7], in assay [8] and in [9] was > 100 µM throughout. Besides, the TGI in assay [10] was > 100 µM.
With `CC(C)(C)[Si](C)(C)OCC1OC(n2cnc3c(N)ncnc32)CC1OS(C)(=O)=O` (stereo not given), the TGI in assay [2] was > 100 µM; in assay [3] it was > 100 µM; in [4] it was 17.3 µM; in assay [5], > 100 µM; in [6] it was > 100 µM; in assay [7], > 100 µM. In addition, the TGI in [8] and in assay [10] was > 100 µM throughout.
On to `CCO/C(O)=C(/C(=N)N1CCCC1)C(=O)Nc1ccc(F)cc1`, for which the TGI in assay [1], in assay [2], in assay [3], in [5], in assay [6] and in assay [7] was > 100 µM in each case. Also, the TGI in [8], in assay [9] and in [10] was > 100 µM in each case.
Consider `Cc1nc2ncn3c(c-2c1Cc1ccccc1)NC=C(O)N3`, for which the TGI in assay [1] was > 100 µM; in assay [2] it was > 100 µM; in [3], > 100 µM; in assay [5] it was 65.7 µM; in assay [6] it was > 100 µM; in assay [7], > 100 µM. Moreover, the TGI in [8], in assay [9] and in assay [10] was > 100 µM in each case.
For `CCCN1C(=O)CSC1=Nc1ccc2cc3ccc(N=C4SCC(=O)N4CCC)cc3nc2c1`, the GI50 is > 100 µM in [1]; 46.5 µM in assay [2]; > 100 µM in [3]; 0.0391 µM in [4]; 17.5 µM in assay [6]; 25.1 µM in [7]. The GI50 is 78.1 µM in [8], 35.5 µM in assay [9] and 48.2 µM in [10]. For the same compound, the TGI in assay [1] is > 100 µM; in assay [2], > 100 µM; in [3], > 100 µM; in assay [4], 0.334 µM; in assay [6], 81.7 µM; in assay [7], > 100 µM. Besides, the TGI in [8], in assay [9] and in assay [10] was > 100 µM throughout.
`CSCCC(NC(=O)OCc1ccccc1)P(=O)(O)c1ccccc1` (stereo not given): the TGI in assay [1], in [3], in assay [4], in [5], in assay [7] and in assay [8] was > 100 µM each time. Moreover, the TGI in assay [10] is > 100 µM.
As to `COc1ccc(C2c3cc4c(cc3OC(O)(CO)C2C(=O)O)OCO4)cc1` (stereo not given) (tested in a mixture with another compound), the TGI was > 100 µM in [1]; 55.5 µM in assay [3]; 41.7 µM in assay [4]; 43.5 µM in assay [5]; 75.9 µM in [6]; 94.3 µM in assay [9]. The compound further returned a TGI in assay [10] of 36.5 µM.
With `CC(=O)Oc1ccc(CO)cc1OC(C)=O`, the TGI was > 100 µM in [1]; 76.1 µM in assay [3]; > 100 µM in [4]; > 100 µM in assay [6]; > 100 µM in assay [9]; > 100 µM in assay [10].
Consider `Nc1cc(N2CCOCC2)nc(=O)n1-c1ccc(Cl)cc1`, for which the TGI in [1], in assay [2], in [3], in assay [4], in assay [5] and in assay [8] was > 100 µM each time. The TGI in [10] was > 100 µM.
Consider `CCOC(=O)C(=O)NCCCN1CCOCC1`, for which the TGI in [1], in assay [3], in assay [4], in [5], in assay [6] and in assay [9] was > 100 µM in each case. Besides, in assay [10], the TGI is > 100 µM.
For `COC(=S)OC1CC(n2cnc3c(N)ncnc32)OC1CO[Si](C)(C)C(C)(C)C` (stereo not given), the TGI turned out to be 64.1 µM in assay [2]; 75.9 µM in assay [3]; 59.3 µM in assay [4]; 43.8 µM in assay [5]; 66.8 µM in [6]; 39.9 µM in assay [7]. Further, the values for the TGI in assay [8] and in [10] were 44.1 µM and 28.1 µM, respectively.
As for `COC(OC)C1OC(CO)C(n2cc(F)c(=O)[nH]c2=O)C1O` (stereo not given), the TGI in [1], in [2], in assay [3], in assay [4], in [5] and in assay [7] was > 100 µM each time. The TGI in assay [8], in assay [9] and in assay [10] was > 100 µM throughout.
With `COC(CN(C=O)[C@@H](c1ccc(Cl)cc1)c1cc2ccccc2o1)OC`, the TGI turned out to be 45.4 µM in [1]; 44 µM in assay [3]; 33.7 µM in assay [4]; 30.7 µM in assay [5]; 11.5 µM in assay [6]; 37 µM in [7]. In addition, the figures for the TGI in assay [8], in [9] and in assay [10] were 45.6 µM, 30.9 µM and 31.8 µM, respectively.
As for `CC1(C)CCC[C@]2(C)[C@@H]1CC[C@@]13O[C@@H]1C1=C(CO)C(=O)OC1=C[C@@H]23`, the TGI in assay [1] turned out to be 24.4 µM; in assay [2], 51 µM; in [4], 37 µM; in assay [5] it was 29.4 µM; in [6], 23.7 µM; in assay [7], 81.9 µM. Moreover, the TGI in assay [8] worked out at 57.4 µM; in assay [9], 54.7 µM; in [10] it was 67.4 µM.
For the compound `O=c1[nH]c(Nc2ccc(Cl)cc2)nc2nc[nH]c12`, the TGI in assay [1], in assay [2], in [4], in [5], in assay [6] and in assay [7] was > 100 µM each time. In addition, the TGI in [8], in assay [9] and in [10] was > 100 µM each time.
For `O=C1c2ccccc2C(C2c3ccccc3C(=O)c3cc(Br)ccc32)c2ccc(Br)cc21` (stereo not given), the TGI in [1], in [2], in assay [4], in assay [5], in assay [6] and in assay [7] was > 100 µM in each case. Besides, the TGI in assay [8], in assay [9] and in assay [10] was > 100 µM in each case.
